Patent US4136173A (priority 1977, dated 1979)
Where a name gives a salt, the structure may show the parent alone.

Legend:
[1] = system: neuroleptically treated rats; assay: ovulation after subcutaneous LH-RH in neuroleptically treated rats; assay type: in vivo, rat
Experimental: I. -- Formulations containing the polypeptide, gonadorelin also known as luteinizing hormone-releasing hormone (LH-RH) were evaluated for potency.
Prepared by hydrating each gum separately at 80° C. for 30 minutes and treated with a cell disrupter for 2 minutes. The gum solutions were mixed in the presence of hydrochloric acid by adjusting the pH to 3. Chlorobutanol was then dissolved in the mixed gum solution and filtered. LH-RH was then dissolved in the gum solution over a dose range of 0 to 500 nanograms.
The test solutions were administered subcutaneously to neuroleptically treated rats.

[2] = intranasal evaluation of LH-RH gum formulations; assay type: in vivo; settings: 2% LH-RH, […] locust bean gum, […] xanthan gum, 0.5-1% phenylethyl alcohol
Experimental: II. -- Formulations containing 2% LH-RH, 0.25% locust bean gum, 0.25% xanthan gum, and 0.5-1% phenylethyl alcohol were also prepared and evaluated intranasally.

Rabbits' eyes = assay: average miotic response intensity (pilocarpine hydrochloride formulations); assay type: in vivo, rabbit
Experimental: rabbit's eyes were treated with 2 drops of the test solution, and pupillary diameters were measued with a cathetometer. The miotic response intensity was computed by taking the difference in pupillary diameters at zero time and time "T" (i.e., hours after instillation) and dividing it by the pupillary diameter at zero time. The table below illustrates the average miotic response for all eyes as a function of hours after instillation.
Formulations containing pilocarpine hydrochloride were prepared as in Example 2 and are illustrated as follows: […]

Compound: CC(C)C[C@H](NC(=O)CNC(=O)[C@H](Cc1ccc(O)cc1)NC(=O)[C@H](CO)NC(=O)[C@H](Cc1c[nH]c2ccccc12)NC(=O)[C@H](Cc1cnc[nH]1)NC(=O)[C@@H]1CCC(=O)N1)C(=O)N[C@@H](CCCNC(=N)N)C(=O)N1CCC[C@H]1C(=O)NCC(N)=O [LH-RH]
- Number of Ova Found ([1]; 31 NG s.c., Control (No Gums)): 0
- Number of Rats Ovulating ([1]; 31 NG s.c., Control (No Gums)): 0/10
- Number of Ova Found ([1]; 31 NG s.c., with 0.5% Gums): 0
- Number of Rats Ovulating ([1]; 31 NG s.c., with 0.5% Gums): 0/10
- Number of Ova Found ([1]; 62 NG s.c., Control (No Gums)): 7
- Number of Rats Ovulating ([1]; 62 NG s.c., Control (No Gums)): 2/10
- Number of Ova Found ([1]; 62 NG s.c., with 0.5% Gums): 8.7 ± 1.4
- Number of Rats Ovulating ([1]; 62 NG s.c., with 0.5% Gums): 3/10
- Number of Ova Found ([1]; 125 NG s.c., Control (No Gums)): 8 ± 1.2
- Number of Rats Ovulating ([1]; 125 NG s.c., Control (No Gums)): 5/10
- Number of Ova Found ([1]; 125 NG s.c., with 0.5% Gums): 10.6 ± 0.6
- Number of Rats Ovulating ([1]; 125 NG s.c., with 0.5% Gums): 7/10
- Number of Ova Found ([1]; 250 NG s.c., Control (No Gums)): 10.1 ± 0.5
- Number of Rats Ovulating ([1]; 250 NG s.c., Control (No Gums)): 8/10
- Number of Ova Found ([1]; 250 NG s.c., with 0.5% Gums): 11.2 ± 0.7
- Number of Rats Ovulating ([1]; 250 NG s.c., with 0.5% Gums): 9/10
- Number of Ova Found ([1]; 500 NG s.c., Control (No Gums)): 10.5 ± 0.6
- Number of Rats Ovulating ([1]; 500 NG s.c., Control (No Gums)): 10/10
- Number of Ova Found ([1]; 500 NG s.c., with 0.5% Gums): 11.5 ± 0.5
- Number of Rats Ovulating ([1]; 500 NG s.c., with 0.5% Gums): 10/10
- LH release and induction of ovulation ([1]; s.c., fluphenazine dihydrochloride pre-treated proestrous rats): released LH and subsequently induced ovulation
- LH-RH release after intranasal administration [2]: stimulates LH-RH release at a level greater than formulations without the mixed gums

Compound: CC[C@@H]1C(=O)OC[C@@H]1Cc1cncn1C [pilocarpine hydrochloride]
- potentiation of miotic response by gums (Rabbits' eyes; combined locust bean and xanthan gums): potentiate the miotic response

Compound: CC[C@@H]1C(=O)OC[C@@H]1Cc1cncn1C [pilocarpine]
- possible reduction of dose with gums (Rabbits' eyes; combined use of locust bean and xanthan gums): up to one fifth
